Molecular target: T1, human recombinant mGluR5 (Homo sapiens, UniProt P41594)
T1 construct: expressed in transfected cells; host or cells: HEK 293 cell line; cultured with tetracycline, hygromycin and geneticin; tetracycline withdrawn 3-7 days before the assay
Assay: positive modulation of mGluR5, calcium based FLIPR assay in HEK 293 cells
Details: HEK 293 cell line expressing human recombinant mGluR5; peak height of Ca release fluorescence signal after glutamate at approximately 5% basal stimulation; nonlinear regression
In short: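 HEK 293 cells expressing human mGluR5, tetracycline-free 3-7 days, Calcium-4 dye-loaded in Ringer solution pH 7.4; 1% DMSO final. Compound added 5 min before glutamate at ~5% of maximal effect; peak Ca2+ fluorescence normalized to basal glutamate (100%) and 10 μM CDPPB (200%); EC50 by nonlinear regression.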

T1 sequence (P41594 21-1212): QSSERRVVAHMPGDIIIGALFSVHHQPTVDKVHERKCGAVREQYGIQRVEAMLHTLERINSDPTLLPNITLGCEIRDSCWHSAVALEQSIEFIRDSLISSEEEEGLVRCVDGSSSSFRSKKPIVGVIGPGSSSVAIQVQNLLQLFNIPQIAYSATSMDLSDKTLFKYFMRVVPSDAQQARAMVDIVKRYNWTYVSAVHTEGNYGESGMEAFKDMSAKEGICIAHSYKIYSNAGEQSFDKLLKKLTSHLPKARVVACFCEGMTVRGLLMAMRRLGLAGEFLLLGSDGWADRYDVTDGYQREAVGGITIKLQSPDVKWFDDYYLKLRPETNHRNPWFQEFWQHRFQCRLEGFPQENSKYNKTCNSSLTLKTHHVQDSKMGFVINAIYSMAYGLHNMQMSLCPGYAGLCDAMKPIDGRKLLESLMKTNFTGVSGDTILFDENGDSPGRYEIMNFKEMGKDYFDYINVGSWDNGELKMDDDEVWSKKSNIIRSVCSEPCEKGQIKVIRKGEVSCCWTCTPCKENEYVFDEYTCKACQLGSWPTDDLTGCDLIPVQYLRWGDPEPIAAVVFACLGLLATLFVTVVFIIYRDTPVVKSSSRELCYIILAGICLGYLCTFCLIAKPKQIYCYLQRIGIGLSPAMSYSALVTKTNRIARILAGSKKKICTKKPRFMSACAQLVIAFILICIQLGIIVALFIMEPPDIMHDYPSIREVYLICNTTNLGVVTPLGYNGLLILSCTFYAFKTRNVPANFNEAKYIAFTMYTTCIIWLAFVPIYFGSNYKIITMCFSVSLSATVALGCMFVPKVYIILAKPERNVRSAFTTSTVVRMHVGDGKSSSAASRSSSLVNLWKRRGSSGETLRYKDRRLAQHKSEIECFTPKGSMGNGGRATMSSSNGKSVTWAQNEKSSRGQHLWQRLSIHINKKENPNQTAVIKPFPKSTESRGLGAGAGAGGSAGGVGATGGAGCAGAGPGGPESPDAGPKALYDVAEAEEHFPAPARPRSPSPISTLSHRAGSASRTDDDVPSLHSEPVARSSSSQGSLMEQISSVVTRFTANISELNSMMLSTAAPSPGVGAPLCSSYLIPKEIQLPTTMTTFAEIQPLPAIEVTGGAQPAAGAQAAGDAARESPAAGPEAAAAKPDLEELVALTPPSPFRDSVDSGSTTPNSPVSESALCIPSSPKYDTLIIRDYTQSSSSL

Compound | EC50
O=C(Cn1nc(-c2ccc(OC(F)F)cn2)cc1-c1ccccc1)N1CCN(c2ccccn2)CC1 [Example 7.01.179] | 0.046 µM
COc1cc(N2CCN(C(=O)Cn3nc(-c4ccc(OC(F)F)cn4)cc3-c3ccccc3)CC2)ncn1 [Example 7.01.180] | 0.064 µM
CCc1cc(-c2ccc(C)c(F)c2)nn1CC(=O)N1CCN(c2ncccn2)CC1 [Example 7.01.181] | 0.13 µM
CCc1cc(-c2ccc(C)c(F)c2)nn1CC(=O)N1CCN(c2ccccn2)CC1 [Example 7.01.182] | 0.434 µM
CCc1cc(-c2ccc(C)c(F)c2)nn1CC(=O)N1CCN(c2cc(OC)ncn2)CC1 [Example 7.01.183] | 0.318 µM
COc1cc(N2CCN(C(=O)Cn3nc(-c4ccc(OC)c(C)c4)cc3-c3ccccc3)CC2)ncn1 [Example 7.01.184] | 0.145 µM
CCCc1cc(-c2ccc(F)c(C)n2)nn1CC(=O)N1CCN(c2ncccn2)CC1 [Example 7.01.185] | 0.442 µM
CCCc1cc(-c2ccc(F)c(C)n2)nn1CC(=O)N1CCN(c2ccccn2)CC1 [Example 7.01.186] | 0.441 µM
CCCc1cc(-c2ccc(F)c(C)n2)nn1CC(=O)N1CCN(c2cc(OC)ncn2)CC1 [Example 7.01.187] | 0.36 µM
Cc1ccc(-c2cc(-c3ccccc3)n(CC(=O)N3CCN(c4ncccn4)CC3)n2)cc1F [Example 7.01.188] | 0.027 µM
Cc1ccc(-c2cc(-c3ccccc3)n(CC(=O)N3CCN(c4ccccn4)CC3)n2)cc1F [Example 7.01.189] | 0.048 µM
COc1cc(N2CCN(C(=O)Cn3nc(-c4ccc(C)c(F)c4)cc3-c3ccccc3)CC2)ncn1 [Example 7.01.190] | 0.047 µM
O=C(Cn1nc(-c2ccc(C(F)F)cc2)cc1-c1ccccc1)N1CCN(c2ncccn2)CC1 [Example 7.01.191] | 0.007 µM
COc1cc(N2CCN(C(=O)Cn3nc(-c4ccc(C(F)F)cc4)cc3-c3ccccc3)CC2)ncn1 [Example 7.01.192] | 0.015 µM
O=C(Cn1nc(-c2ccccc2)cc1-c1ccccc1)N1CCN(c2ncccn2)CC1 [Example 7.02.01, 2-(3,5-diphenyl-pyrazol-1-yl)-1-(4-(2-pyrimidinyl)-1-piperazinyl)-ethanon] | 0.035 µM
O=C(Cn1nc(-c2ccccc2)cc1-c1ccccc1)N1CCN(c2cccnc2)CC1 [Example 7.02.02] | 0.428 µM
O=C(Cn1nc(-c2ccccc2)cc1-c1ccccc1)N1CCN(c2ccccn2)CC1 [Example 7.02.03] | 0.029 µM
O=C(Cn1nc(-c2ccccc2)cc1-c1ccccc1)N1CCN(c2ccccc2)CC1 [Example 7.02.04] | 0.393 µM
O=C(Cn1nc(-c2ccccc2)cc1-c1ccccc1)N1CCN(c2cnccn2)CC1 [Example 7.02.05] | 0.085 µM
O=C(Cn1nc(-c2ccccc2)cc1-c1ccccc1)N1CCN(c2cccnc2)CC1 [Example 7.02.06] | 0.581 µM
O=C(Cn1nc(-c2ccccc2)cc1-c1ccccc1)N1CCN(c2cc3ccccc3cn2)CC1 [Example 7.02.07] | 0.853 µM
N#Cc1ccc(N2CCN(C(=O)Cn3nc(-c4ccccc4)cc3-c3ccccc3)CC2)nc1 [Example 7.02.08] | 0.934 µM
N#Cc1cccnc1N1CCN(C(=O)Cn2nc(-c3ccccc3)cc2-c2ccccc2)CC1 [Example 7.02.09] | 0.298 µM

Compound | EC50
O=C(Cn1nc(-c2ccccc2)cc1-c1ccccc1)N1CCN(c2ncc(Br)cn2)CC1 [Example 7.02.11] | 0.091 µM
O=C(Cn1nc(-c2ccccc2)cc1-c1ccccc1)N1CCN(c2nccc(C(F)(F)F)n2)CC1 [Example 7.02.12] | 1.26 µM
O=C(Cn1nc(-c2ccccc2)cc1-c1ccccc1)N1CCN(c2cc(C(F)(F)F)ccn2)CC1 [Example 7.02.13] | 0.696 µM
O=C(Cn1nc(-c2ccccc2)cc1-c1ccccc1)N1CCN(c2ncncn2)CC1 [Example 7.02.14] | 0.129 µM
COCc1cc(-c2ccc(F)c(C)c2)nn1CC(=O)N1CCN(c2ncccn2)CC1 [Example 7.02.15] | 0.153 µM
COCc1cc(-c2ccc(F)c(C)c2)nn1CC(=O)N1CCN(c2ccccn2)CC1 [Example 7.02.16] | 0.237 µM
COCc1cc(-c2ccc(F)c(C)c2)nn1CC(=O)N1CCN(c2cc(OC)ccn2)CC1 [Example 7.02.17] | 0.182 µM
COCc1cc(-c2ccc(F)c(C)c2)nn1CC(=O)N1CCN(c2cc(OC)ncn2)CC1 [Example 7.02.18] | 0.211 µM
COCc1cc(-c2ccc(F)c(C)c2)nn1CC(=O)N1CCN(c2cccnn2)CC1 [Example 7.02.19] | 1.2 µM
COCc1cc(-c2ccc(F)c(C)c2)nn1CC(=O)N1CCN(c2ncnc3[nH]cnc23)CC1 [Example 7.02.20] | 0.183 µM
Cc1cc(-c2cc(C)n(CC(=O)N3CCN(c4ccccn4)CC3)n2)ccc1F [Example 7.02.21] | 0.077 µM
COc1ccnc(N2CCN(C(=O)Cn3nc(-c4ccc(F)c(C)c4)cc3C)CC2)c1 [Example 7.02.22] | 0.085 µM
COc1cc(N2CCN(C(=O)Cn3nc(-c4ccc(F)c(C)c4)cc3C)CC2)ncn1 [Example 7.02.23] | 0.06 µM
Cc1cc(-c2cc(C)n(CC(=O)N3CCN(c4cccnn4)CC3)n2)ccc1F [Example 7.02.24] | 0.34 µM
Cc1cc(-c2cc(C)n(CC(=O)N3CCN(c4ncnc5[nH]cnc45)CC3)n2)ccc1F [Example 7.02.25] | 0.092 µM
COc1cnc(N2CCN(C(=O)Cn3nc(-c4ccc(F)c(C)c4)cc3C)CC2)nc1 [Example 7.02.26] | 0.036 µM
Cc1cc(-c2cc(-c3ccccc3)n(CC(=O)N3CCN(c4ccccc4)CC3)n2)ccc1F [Example 7.02.27] | 0.243 µM
COc1ccc(-c2cc(-c3ccc(OC)cc3)n(CC(=O)N3CCN(c4ncccn4)CC3)n2)cc1 [Example 7.03.01] | 0.031 µM
O=C(Cn1nc(-c2ccccc2F)cc1-c1ccccc1F)N1CCN(c2ncccn2)CC1 [Example 7.04.01] | 0.696 µM
O=C(Cn1nc(C2CCCCC2)cc1-c1ccc(F)cc1)N1CCN(c2ncccn2)CC1 [Example 7.04.02] | 0.081 µM
COC(=O)c1ccc(-c2cc(-c3ccccc3)n(CC(=O)N3CCN(c4ncccn4)CC3)n2)cc1 [Example 7.04.03] | 0.392 µM
Cc1cc(-c2cc(-c3ccccc3)n(CC(=O)N3CCN(c4cc(OCCN5CCOCC5)ncn4)CC3)n2)ccc1F [Example 7.05.01, 2-[3-(4-fluoro-3-methyl-phenyl)-5-phenyl-pyrazol-1-yl]-1-{4-[6-(2-morpholin-4-yl-ethoxy)-pyrimidin-4-yl]-piperazin-1-yl}-ethanone] | 0.04 µM
Cc1cc(-c2cc(-c3ccccc3)n(CC(=O)N3CCN(c4cc(OCC(C)O)ncn4)CC3)n2)ccc1F (stereo not shown) [Example 7.05.02] | 0.038 µM

— US8822464B2, “N-aryl-piperazine derivatives and their use as positive allosteric modulators of mGluR5 receptors” (Boehringer Ingelheim International GmbH, priority 2011, dated 2014)
